Measurements taken from patent publication US20070128217A1 (priority 2003, published 2007).

Columns and labels:
[1] = test system: rabbit serum obtained by immunizing a rabbit with the SARS-CoV strain Frankfurt 1; format: binding; parameters: Binding of a rabbit serum to linear peptides / Binding of a rabbit serum to looped peptides / Rabbit serum linear peptides / Rabbit serum looped peptides / Binding of a rabbit serum to linear peptides of protein N of SARS-CoV Urbani (Rabbit serum linear peptides) / Binding of a rabbit serum to looped/cyclic peptides of protein N of SARS-CoV Urbani (Rabbit serum looped peptides): unit not given here
[2] = test system: control sera (pooled serum of ten healthy LUMC hospital workers; commercial negative donor pooled serum from the Dutch bloodbank); format: binding, human; parameters: Binding of Control serum LUMC to linear peptides / Binding of Control serum Blood-bank to linear peptides / Binding of Control serum LUMC to looped peptides / Binding of Control Serum Blood-Bank to Looped peptides / Binding of Control serum LUMC to linear peptides of the protein M of SARS-CoV Urbani / Binding of Control serum Blood-bank to linear peptides of the protein M of SARS-CoV Urbani / Binding of Control serum LUMC to looped peptides of the protein M of SARS-CoV Urbani / Binding of Control Serum Blood-Bank to Looped peptides of the protein M of SARS-CoV Urbani: unit not given here
[3] = test system: antibodies in sera from SARS patients (sera 1a, 1b, 2, 6, 37, 62, London, SARS-yellow, SARS-green); format: binding, human; parameters: Binding of serum 6 to linear peptides of protein X1 of SARS-CoV Urbani / Binding of serum 37 to linear peptides of protein X1 of SARS-CoV Urbani / Binding of serum 6 to looped/cyclic peptide (PEPSCAN-ELISA) / Binding of serum 37 to looped/cyclic peptide (PEPSCAN-ELISA) / Binding of serum 37 to looped/cyclic peptides of protein X1 of SARS-CoV Urbani / Binding of serum 6 to linear peptides of protein X2 / Binding of serum 37 to linear peptides of protein X2 / Binding of serum 37 to looped/cyclic peptides of protein X2 of SARS-CoV Urbani / Binding of serum 6 to linear peptides of protein M of SARS-CoV Urbani / Binding of serum 37 to linear peptides of protein M of SARS-CoV Urbani / Binding of serum 6 to looped/cyclic peptides of protein M of SARS-CoV Urbani / Binding of serum 37 to looped/cyclic peptides of protein M of SARS-CoV Urbani / Binding of serum 6 to linear peptides of protein X3 of SARS-CoV Urbani / Binding of serum 37 to linear peptides of protein X3 of SARS-CoV Urbani / Binding of serum 37 to looped/cyclic peptides of protein X3 of SARS-CoV Urbani / Binding of serum 6 to linear peptides of protein X4 of SARS-CoV Urbani / Binding of serum 37 to linear peptides of protein X4 of SARS-CoV Urbani / Binding of serum 37 to looped/cyclic peptides of protein X4 of SARS-CoV Urbani / Binding of serum 6 to linear peptides of protein X5 of SARS-CoV Urbani / Binding of serum 37 to linear peptides of protein X5 of SARS-CoV Urbani / Binding of serum 37 to looped/cyclic peptides of protein X5 of SARS-CoV Urbani / Binding of serum 6 to linear peptides of protein N of SARS-CoV Urbani / Binding of serum 37 to linear peptides of protein N of SARS-CoV Urbani / Binding of serum 6 to linear peptide (PEPSCAN-ELISA) / Binding of serum 1a to looped/cyclic peptides of protein N of SARS-CoV Urbani / Binding of serum 1b to looped/cyclic peptides of protein N of SARS-CoV Urbani / Binding of serum 2 to looped/cyclic peptides of protein N of SARS-CoV Urbani / Binding of serum 6 to looped/cyclic peptides of protein N of SARS-CoV Urbani / Binding of serum 37 to looped/cyclic peptides of protein N of SARS-CoV Urbani / Binding of serum 62 to looped/cyclic peptides of protein N of SARS-CoV Urbani / Binding of serum London to looped/cyclic peptides of protein N of SARS-CoV Urbani / Binding of serum SARS-green to looped/cyclic peptides of protein N of SARS-CoV Urbani: unit not given here
[4] = test system: recombinant human anti-SARS-CoV antibody 03-018; format: binding; parameters: Binding of antibody 03-018 to linear peptides of the N protein of SARS-CoV Urbani / Binding of antibody 03-018 to looped/cyclic peptides of the N protein of SARS-CoV Urbani: unit not given here

Row | Sequence | Binding of a rabbit serum to linear peptides of protein N of SARS-CoV Urbani (Rabbit serum linear peptides) [1] | Binding of a rabbit serum to looped/cyclic peptides of protein N of SARS-CoV Urbani (Rabbit serum looped peptides) [1] | Binding of Control Serum Blood-Bank to Looped peptides [2] | Binding of Control serum Blood-bank to linear peptides [2] | Binding of Control serum LUMC to linear peptides [2] | Binding of Control serum LUMC to looped peptides [2] | Binding of serum 1a to linear peptides of protein N of SARS-CoV Urbani [3] | Binding of serum 1a to looped/cyclic peptides of protein N of SARS-CoV Urbani [3] | Binding of serum 1b to linear peptides of protein N of SARS-CoV Urbani [3] | Binding of serum 1b to looped/cyclic peptides of protein N of SARS-CoV Urbani [3] | Binding of serum 2 to linear peptides of protein N of SARS-CoV Urbani [3] | Binding of serum 2 to looped/cyclic peptides of protein N of SARS-CoV Urbani [3] | Binding of serum 6 to looped/cyclic peptides of protein N of SARS-CoV Urbani [3] | Binding of serum 37 to looped/cyclic peptides of protein N of SARS-CoV Urbani [3] | Binding of serum 62 to looped/cyclic peptides of protein N of SARS-CoV Urbani [3] | Binding of serum London to looped/cyclic peptides of protein N of SARS-CoV Urbani [3] | Binding of serum SARS-green to looped/cyclic peptides of protein N of SARS-CoV Urbani [3] | Binding of serum SARS-yellow to looped/cyclic peptides of protein N of SARS-CoV Urbani [3] | Binding of antibody 03-018 to linear peptides of the N protein of SARS-CoV Urbani [4] | Binding of antibody 03-018 to looped/cyclic peptides of the N protein of SARS-CoV Urbani [4] | other results
1 | TFGGPTDSTDNNQNG | 0.1 | 0.1 | 0.5 | 0.8 | 0.7 | 0.5 | 0.3 | 0.3 | 0.1 | 0.2 | 0.2 | 0.3 | 0.2 | 0.4 | 0.3 | 0.3 | 0.5 | 0.1 | 0.1 | 0.2 | Binding of serum 6 to linear peptides of protein N of SARS-CoV Urbani [3]: 0.2; Binding of serum 37 to linear peptides of protein N of SARS-CoV Urbani [3]: 0.8; Binding of serum 62 to linear peptides of protein N of SARS-CoV Urbani [3]: 0.6; Binding of serum London to linear peptides of protein N of SARS-CoV Urbani [3]: 0.6; Binding of serum SARS-green to linear peptides of protein N of SARS-CoV Urbani [3]: 0.5; Binding of serum SARS-yellow to linear peptides of protein N of SARS-CoV Urbani [3]: 0.5
2 | TFPPTEPKKDKKKKT | 0.2 | 0.3 |  |  |  |  | 0.2 | 0.2 | 0.1 | 0.1 | 0.9 | 0.3 | 0.1 | 0.4 | 0.4 | 0.3 | 0.1 | 0.3 | 0.1 | 0.2 | Control Serum Blood-Bank Looped peptides [2]: 0.5; Control serum Blood-bank linear peptides [2]: 0.6; Control serum LUMC linear peptides [2]: 0.7; Control serum LUMC looped peptides [2]: 0.4; Binding of serum 6 to linear peptides of protein N of SARS-CoV Urbani [3]: 0.3; Binding of serum 37 to linear peptides of protein N of SARS-CoV Urbani [3]: 0.8; Binding of serum 62 to linear peptides of protein N of SARS-CoV Urbani [3]: 0.8; Binding of serum London to linear peptides of protein N of SARS-CoV Urbani [3]: 0.5; Binding of serum SARS-green to linear peptides of protein N of SARS-CoV Urbani [3]: 0.3; Binding of serum SARS-yellow to linear peptides of protein N of SARS-CoV Urbani [3]: 0.9
3 | TKKSAAEASKKPRQK | 0.1 | 0.2 | 0.4 | 0.8 | 0.9 | 0.4 |  | 0.2 |  | 0.1 |  | 0.2 | 0.1 | 0.4 | 0.3 | 0.3 | 0.0 | 0.2 | 0.1 | 0.2 | Recognition of the peptide by sera of SARS-CoV infected individuals, and form (linear, looped/cyclic) in which it is recognized [3]: recognized in linear form
4 | TNSGPDDQIGYYRRA | 0.2 | 0.5 | 0.7 | 1.2 | 0.9 | 0.9 | 0.3 | 0.5 | 0.2 | 0.4 | 0.2 | 0.5 | 0.3 | 0.9 | 0.8 | 0.6 | 0.6 | 0.7 | 0.1 | 0.2 | Binding of serum 6 to linear peptides of protein N of SARS-CoV Urbani [3]: 0.2; Binding of serum 37 to linear peptides of protein N of SARS-CoV Urbani [3]: 0.7; Binding of serum 62 to linear peptides of protein N of SARS-CoV Urbani [3]: 0.7; Binding of serum London to linear peptides of protein N of SARS-CoV Urbani [3]: 0.5; Binding of serum SARS-green to linear peptides of protein N of SARS-CoV Urbani [3]: 0.4; Binding of serum SARS-yellow to linear peptides of protein N of SARS-CoV Urbani [3]: 0.6
